Measurements: patent US5958923A, “Use of thiazole and thiadiazole compounds” (BASF Aktiengesellschaft, priority 1994, dated 1999)

How the values were obtained:
[1] = biological target: T1, human D3 receptor (Homo sapiens, UniProt P35462); assay: D3 binding assay (125I-iodosulpiride, cloned human D3 receptor-expressing CCL 1.3 mouse fibroblasts); details: for Ki: 0.1 nM 125 iodosulpiride, 60 min, 30° C., read-out: Receptor binding D3 125I-sulpiride Ki; for Selectivity Ki D2 /Ki D3: ratio D2 (3H-spiperone) to D3 (125I-sulpiride)
T1 construct: (Natick, Mass., USA); host or cells: CCL 1.3 mouse fibroblasts
Protocol: Cloned human D3 receptor-expressing CCL 1.3 mouse fibroblasts obtained from Res. Biochemicals Internat. One Strathmore Rd., Natick, Mass. 01760-2418 USA, were used for the binding studies.
The D3 -expressing cells were grown in RPMI-1640 containing 10% fetal calf serum (GIBCO No. 041-32400 N); 100 U/ml penicillin and 0.2% streptomycin (GIBCO BRL, Gaithersburg, Md., USA). After 48 h, the cells were washed with PBS and incubated with 0.05% trypsin-containing PBS for 5 min. Neutralization with medium was then carried out, and the cells were collected by centrifugation at 300×g. To lyze the cells, the pellet was briefly washed with lysis buffer (5 mM tris-HCl, pH 7.4, with 10% glycerol) and then incubated in a concentration of 10^7 cells/ml of lysis buffer at 4° C. for 30 min. The cells were centrifuged at 200×g for 10 min and the pellet was stored in liquid nitrogen.
For the D3 receptor-binding assay, the membranes were suspended in incubation buffer (50 mM tris-HCl, pH 7.4, with 120 mM NaCl, 5 mM KCl, 2 mM CaCl2, 2mM MgCl2, 10 μM quinolinol, 0.1% ascorbic acid and 0.1% BSA) in a concentration of about 10^6 cells/250 μl of assay mixture and incubated at 30° C. with 0.1 nM ^125 iodosulpiride in the presence and absence of test substance. The non-specific binding was determined using 10^-6 M spiperone.
After 60 min, the free and the bound radioligand was separated by filtration through GF/B glass fiber filters (Whatman, England) on a Skatron cell collector (Skatron, Lier, Norway), and the filters were washed with ice-cold tris-HCl buffer, pH 7.4. The radioactivity collected on the filters was quantified using a Packard 2200 CA liquid scintillation counter.
The Ki values were determined by non-linear regression analysis using the LIGAND program.

[2] = biological target: T2, D2 receptor (Bos taurus, UniProt P20288); assay: D2 binding assay (3H-spiperone, D2low, bovine nucleus caudatus membranes); details: 0.2 nmol/l 3H-spiperone (D2low), 25° C., 60 min
T2 construct: Nucleus caudatus was removed from bovine brain; from tissue; host or cells: bovine nucleus caudatus membranes
Protocol: a) Nucleus caudatus (bovine)
Nucleus caudatus was removed from bovine brain and washed with ice-cold 0.32 M sucrose solution. After determination of the weight, the material was comminuted and homogenized in 5-10 volumes of sucrose solution using a Potter-Evehjem [sic] homogenizer (500 rpm). The homogenate was centrifuged at 3,000×g for 15 minutes (4° C.), and the resulting supernatant was subjected to another 15-minute centrifugation at 40,000×g. The residue was then washed twice, by resuspension and centrifugation, with 50 mM tris-HCl, pH 7.4. The membranes were stored in liquid nitrogen until used.
a) ^3 H-Spiperone (D2low)
Nucleus caudatus membranes were taken up in incubation buffer (mM: tris-HCl 50, NaCl 120, KCl 5, MgCl2 1, CaCl2 2, pH 7.4). Various mixtures, each of 1 ml, were prepared:
Total binding: 400 μg of membranes+0.2 nmol/l ^3 H-spiperone (Du Pont de Nemours, NET-565).
Non-specific binding: as mixtures for total binding+10 μM (+)-butaclamol.
Test substance: as mixtures for total binding+increasing concentrations of test substance.
After incubation at 25° C. for 60 minutes, the mixtures were filtered through GF/B glass fibre filters (Whatman, England) on a Skatron cell collector (from Zinsser, Frankfurt), and the filters were washed with ice-cold 50 mM tris-HCl buffer, pH 7.4. The radioactivity collected on the filters was quantified using a Packard 2200 CA liquid scintillation counter.
The Ki values were determined by non-linear regression analysis using the LIGAND program or by conversion of the IC50 values using the formula of Cheng and Prusoff.

T1 sequence (P35462 whole entry): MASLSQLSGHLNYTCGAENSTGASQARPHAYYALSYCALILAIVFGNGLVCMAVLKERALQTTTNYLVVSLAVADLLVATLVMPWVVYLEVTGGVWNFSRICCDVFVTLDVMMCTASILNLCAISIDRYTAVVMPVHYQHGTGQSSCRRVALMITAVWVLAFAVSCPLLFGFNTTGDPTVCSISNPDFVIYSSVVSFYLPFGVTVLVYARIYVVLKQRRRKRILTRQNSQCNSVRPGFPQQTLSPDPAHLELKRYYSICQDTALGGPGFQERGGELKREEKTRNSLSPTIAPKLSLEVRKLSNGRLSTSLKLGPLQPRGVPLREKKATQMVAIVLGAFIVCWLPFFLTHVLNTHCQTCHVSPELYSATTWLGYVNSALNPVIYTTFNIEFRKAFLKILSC
T2 sequence (P20288 whole entry): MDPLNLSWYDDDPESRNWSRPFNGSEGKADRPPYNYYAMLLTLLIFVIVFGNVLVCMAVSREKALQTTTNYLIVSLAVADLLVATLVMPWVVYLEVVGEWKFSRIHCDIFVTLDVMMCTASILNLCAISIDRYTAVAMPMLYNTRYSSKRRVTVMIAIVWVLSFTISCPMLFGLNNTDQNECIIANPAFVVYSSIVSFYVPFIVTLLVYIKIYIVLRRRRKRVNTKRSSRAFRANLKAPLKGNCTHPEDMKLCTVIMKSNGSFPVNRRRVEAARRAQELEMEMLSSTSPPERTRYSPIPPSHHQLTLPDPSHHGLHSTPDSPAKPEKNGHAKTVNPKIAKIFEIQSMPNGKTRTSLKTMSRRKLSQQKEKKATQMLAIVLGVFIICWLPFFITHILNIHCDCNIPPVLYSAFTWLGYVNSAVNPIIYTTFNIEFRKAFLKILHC

SMILES | Ki [1] [nM] | Selectivity Ki D2 /Ki D3 [1] | Ki [2] [nM]
Cc1cc(N2CCN(CCCSc3nnc(N)s3)CC2)nc(-n2cccc2)n1 [Example 56] | 27 | 70 | 3500
CC(C)c1cccc(N2CCN(CCCCCCCSc3nnc(N)s3)CC2)c1 [Example 49] | 6.5 | 86 | 560
Nc1nnc(SCC=CCN2CCN(c3cccc(C(F)(F)F)n3)CC2)s1 [Example 53] | 2.95 | 50 | 145
N#Cc1cccc(N2CCN(CCCCCCCCSc3nnc(N)s3)CC2)c1 [Example 51] | 8.3 | 62 | 500
CC(CSc1nnc(N)s1)CN1CCN(c2cccc(C(F)(F)F)c2)CC1 (stereo not drawn) [Example 16] | 10.9 | 36 | 402
CC(C)(C)c1cc(N2CCN(CCCSc3nnc(N)s3)CC2)nc(C(C)(C)C)n1 [Example 58] | 1.7 | 132 | 225
Nc1nnc(SCCCN2CCN(c3cccc(C(F)(F)F)n3)CC2)s1 [Example 23] | 6.3 | 31 | 200
Nc1nnc(CCCCCCN2CCN(c3cccc(C(F)(F)F)c3)CC2)s1 [Example 2] | 1.4 | 46 | 65
Nc1nnc(SCCCN2CCN(c3cc(Cl)cc(Cl)c3)CC2)s1 [Example 13] | 0.6 | 41 | 25
